Read-outs that look alike come from different tables or passages of the source. Bounds are passed on as bounds.

Usually Ki stands for a measure of affinity in units of concentration, obtained from inhibition or displacement. The low end stands for higher affinity, the high end for lower affinity.

In experiment [1] the target is UGMmyco (Mycobacterium tuberculosis, UniProt P9WIQ1). Put plainly: HPLC assay of UGMmyco conversion of UDP-galactofuranose to UDP-galactopyranose (inhibition, kinetics). It is filed as biochemical. The settings on record: initial rates at various UDP-Galf, 25 or 50 μM inhibitor, 11 nM UGMmyco, pH 7. As for the experimental part:
UGMmyco inhibition was assessed using a previously described HPLC assay to measure the extent of enzymatic conversion of UDP-galactofuranose to UDP-galactopyranose. (Carlson, E. E.; May, J. F.; Kiessling, L. L. Chem. Biol. 2006, 13, 825-837.)
The relative activity of UGMmyco in the presence of DMSO alone was compared to that in the presence of 50 μM of selected aminothiazoles. Enzymatic reaction conditions were as follows: 50 μM UDP-Galf, 4 μM UGMmyco and 20 mM DTT in 4% DMSO v/v. The mean activities of UGMmyco in the presence of the aminothiazoles are presented in order of decreasing binding affinities to highlight the relationship between enzyme inhibition and binding affinity.
The inhibition curves look similar to the binding curves depicted in FIGS. 5A and 5B. […] In the graphs of these figures, conversion is the amount of UDP-Galp formed divided by the amount of total UDP-Gal (UDP-Galp+UDP-Galf). The data were fit to the equation as previously described. (Soltero-Higgin, M.; Carlson, E. E.; Phillips, J. H.; Kiessling, L. L., Identification of inhibitors for UDP-galactopyranose mutase. J. Am. Chem. Soc. 2004, 126, 10532-10533.)
For inhibitor kinetic assays, the initial rate of UGMmyco was determined at various UDP-Galf concentrations in the presence of either DMSO alone (4% v/v), 25 μM inhibitor, or 50 μM inhibitor. […] Product formation was analyzed using a HPLC-based assay. […]

Experiment [2] addresses T1, UGM from Klebsiella pneumoniae (UGMkleb) (Klebsiella pneumoniae, UniProt Q48485). As to the kind of experiment: Fluorescence polarization binding / inhibition assay, UGMkleb. As for the experimental part: (§1) Serial dilutions of dialyzed UGM (maximum concentration was typically 30 μM) was incubated with 15 nM of fluorescent compounds 5a-5f, 6 or 11 in 50 mM sodium phosphate buffer, pH 7.0 at 25° C. Final volumes were 30 μL in 384 well black microtiter plates (Costar). Fluorescence polarization was analyzed using a Wallac EnVision plate reader. Data were fit to y=m1+((m2−m1)*x^m3)/(m4^m3+x^m3); m2=maximum FP signal, m1=minimum FP signal, m3=slope, m4=binding constant (KaleidaGraph, Synergy Software).
The fluorescence polarization inhibition assay was performed as previously described (22). Reactions contained 580 nM UGMmyco or 500 nM UGMkleb and 15 nM of the fluorescent probe 5c in 50 mM sodium phosphate buffer, pH 7.0 at 25° C. Final volumes were 30 μL in 384 well black microtiter plates (Costar). Serial dilutions of UDP, 4d or 7 were added to the wells. Fluorescence polarization was analyzed using a Wallac EnVision plate reader. Data were fit to y=m1+((m2−m1)*x^m3)/(m4^m3+x^m3); m2=maximum FP signal, m1=minimum FP signal, m3=slope, m4=apparent binding constant (KaleidaGraph, Synergy Software). To determine Kd values, the apparent binding constant was then subjected to Kapp=Kd(1+(I)/KI), where I=concentration of the fluorescent probe and KI=binding affinity of the fluorescent probe to UGM. […] FIGS. 13A and 13B are graphs illustrating determination of Kd for compound II for UGMmyco (FIG. 13A) and UGMkleb (FIG. 13B).

Experiment [3] addresses T2, UGM from Mycobacterium tuberculosis (UGMmyco) (Mycobacterium tuberculosis, UniProt P9WIQ1). As to the kind of experiment: Fluorescence polarization binding / inhibition assay, UGMmyco. Here is the method:
as §1
The fluorescence polarization inhibition assay was performed as previously described (22). Reactions contained 580 nM UGMmyco or 500 nM UGMkleb and 15 nM of the fluorescent probe 5c in 50 mM sodium phosphate buffer, pH 7.0 at 25° C. Final volumes were 30 μL in 384 well black microtiter plates (Costar). Serial dilutions of UDP, 4d or 7 were added to the wells. Fluorescence polarization was analyzed using a Wallac EnVision plate reader. Data were fit to y=m1+((m2−m1)*x^m3)/(m4^m3+x^m3); m2=maximum FP signal, m1=minimum FP signal, m3=slope, m4=apparent binding constant (KaleidaGraph, Synergy Software). […]. FIGS. 13A and 13B are graphs illustrating determination of Kd for compound II for UGMmyco (FIG. 13A) and UGMkleb (FIG. 13B).
On the technique in general: Polarisation of emitted light reports the rotation of a fluorescent probe.

Experiment [4] deals with UGM. Put plainly: Fluorescence polarization assay, UGM homolog not specified (UGMkleb or UGMmyco). It is filed as binding. The settings on record: concentrations up to 34 μM of either UGMmyco or UGMkleb.
In experiment [5] the target is T1, UGM from Klebsiella pneumoniae (UGMkleb). The conditions noted are these: previous work; read-out: affinity of the probe for UGMkleb; cited from earlier work.
In experiment [6] the target is T2, UGM from Mycobacterium tuberculosis (UGMmyco). The settings on record: previous work; read-out: affinity of the probe for UGMmyco; cited from earlier work.
[7] abbreviates: Table 2, 50 mM sodium phosphate pH 7.0, 25° C., read-out: Kd (UMGkleb).
The mark [8] stands for this setting: Kd (UMGmyco) [μM], Table 2, 50 mM sodium phosphate pH 7.0, 25° C.
[9] abbreviates: Kd (UMGkleb) [μM], Table 2, 50 mM sodium phosphate pH 7.0, 25° C.
Where [10] appears, read: Table 2, 50 mM sodium phosphate pH 7.0, 25° C., read-out: Kd (UMGmyco).
Setting [11] is: Table 1, UDP-fluorescein conjugates by linker length n, read-out: UGMmyco Kd.

T2 sequence (P9WIQ1 whole entry): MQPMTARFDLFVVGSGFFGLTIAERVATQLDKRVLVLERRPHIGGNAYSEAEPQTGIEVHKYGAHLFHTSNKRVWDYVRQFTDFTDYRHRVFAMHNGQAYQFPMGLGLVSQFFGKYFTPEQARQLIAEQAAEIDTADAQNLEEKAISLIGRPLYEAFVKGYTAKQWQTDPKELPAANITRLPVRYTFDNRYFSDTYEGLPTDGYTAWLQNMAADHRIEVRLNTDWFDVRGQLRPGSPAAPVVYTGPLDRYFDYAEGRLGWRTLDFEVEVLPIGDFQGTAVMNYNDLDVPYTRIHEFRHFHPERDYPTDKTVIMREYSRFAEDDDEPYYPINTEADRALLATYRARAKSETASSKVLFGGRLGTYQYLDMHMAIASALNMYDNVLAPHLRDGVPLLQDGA
T1 sequence (Q48485 24-384): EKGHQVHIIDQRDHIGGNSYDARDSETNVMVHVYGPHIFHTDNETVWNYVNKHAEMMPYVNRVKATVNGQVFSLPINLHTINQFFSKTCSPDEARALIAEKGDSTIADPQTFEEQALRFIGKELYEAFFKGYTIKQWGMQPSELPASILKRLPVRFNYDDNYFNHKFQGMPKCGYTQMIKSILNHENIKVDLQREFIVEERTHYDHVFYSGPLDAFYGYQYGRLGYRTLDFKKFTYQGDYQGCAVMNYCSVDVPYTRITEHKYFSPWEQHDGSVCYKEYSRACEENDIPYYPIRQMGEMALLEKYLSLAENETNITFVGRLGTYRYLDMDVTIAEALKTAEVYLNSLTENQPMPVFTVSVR
UGMmyco, sequence (P9WIQ1 whole entry): as the sequence (P9WIQ1 whole entry) above

`O=C(O)C(Cc1ccc(Cl)cc1)Nc1nc(-c2ccc(Cl)cc2Cl)cs1` (stereo not drawn): the Ki in experiment [1] amounted to 5.3 µM.

`O=C(O)c1cc(NC(=S)NCCOP(=O)(O)OP(=O)(O)OCC2OC(n3ccc(=O)[nH]c3=O)C(O)C2O)ccc1-c1c2ccc(=O)cc-2oc2cc(O)ccc12` (stereo not drawn) [Compound 5a, UDP-ethanolamine-fluorescein conjugate]: the Kd in experiment [2] (setting [7]) was more than 30 µM; in experiment [3] (setting [8]), more than 30 µM; in experiment [3] (UGMmyco Kd (μM), Table 1, UDP-fluorescein conjugates by linker length n), more than 30 µM.

In the case of `O=C(O)c1cc(NC(=S)NCCOCCOCCOP(=O)(O)OP(=O)(O)OCC2OC(n3ccc(=O)[nH]c3=O)C(O)C2O)ccc1-c1c2ccc(=O)cc-2oc2cc(O)ccc12` (stereo not drawn) [Compound 5f, UDP-3,6-dioxa-octanolamine-fluorescein conjugate], the values for the Kd in experiment [2] (setting [7]) and in experiment [3] (setting [8]) were 0.767 ± 0.017 µM and 0.575 ± 0.016 µM, respectively. Besides, the “fold lower affinity than compound 5d” value in experiment [3] (UGMmyco, relative to 5d (eight methylene linker)) was “more than 10 fold”. Also, in experiment [3] (UGMmyco, relative to UDP), the “fold greater affinity than UDP” value was 20 fold.

Regarding `O=C(O)c1cc(NC(=S)NCCOCCOCCOCCOP(=O)(O)OP(=O)(O)OCC2OC(n3ccc(=O)[nH]c3=O)C(O)C2O)ccc1-c1c2ccc(=O)cc-2oc2cc(O)ccc12` (stereo not drawn) [Compound 5g, UDP-3,6,9-trioxa-undecanolamine-fluorescein conjugate], the Kd was 1.2 ± 0.14 µM in experiment [2] (setting [7]) and 1.07 ± 0.1 µM in experiment [3] (setting [8]).

With `O=C(O)c1cc(NC(=S)NCCCCCCCCO)ccc1-c1c2ccc(=O)cc-2oc2cc(O)ccc12` [Compound 6, Octanolamine-fluorescein conjugate], the “binding of fluorophore alone” value in experiment [4] was “no binding was observed”. Moreover, the Kd in experiment [2] (setting [9]) and in experiment [3] (setting [10]) was more than 30 µM throughout.

Consider `O=c1ccn(C2OC(COP(=O)([O-])OP(=O)(O)OCCCCCCCCNC(=S)Nc3cccc4ccccc34)C(O)C2O)c(=O)[nH]1.[Na+]` (stereo not drawn) [Compound 7, UDP-octanolamine-naphthyl conjugate], for which the Kd in experiment [2] (setting [7]) worked out at 0.583 ± 0.036 µM; in experiment [3] (setting [8]) it was 0.61 ± 0.109 µM.

Turning to `O=C(O)c1cc(NC(=S)NCCCCCCCCc2ccc(-c3csc(NC(Cc4ccc(Cl)cc4)C(=O)O)n3)cc2)ccc1-c1c2ccc(=O)cc-2oc2cc(O)ccc12` (stereo not drawn) [Compound 11, Aminothiazole-fluorescein conjugate], the Kd in experiment [2] (setting [9]) stood at 0.385 ± 0.035 µM; in experiment [2] (Kd / affinity for UGMkleb) it was 0.38 µM; in experiment [3] (setting [10]), 0.295 ± 0.066 µM; in experiment [3] (read-out: Kd / affinity for UGMmyco), 0.3 µM.

`O=c1ccn([C@@H]2O[C@H](COP(=O)(O)OP(=O)(O)O)[C@@H](O)[C@H]2O)c(=O)[nH]1` [UDP, uridine 5′-diphosphate, reference compound]: the Kd in experiment [2] (setting [7]) came out at 26 ± 1.7 µM; in experiment [2] (read-out: Kd / affinity for UGMkleb), 26 µM; in experiment [3] (setting [8]), 15.1 ± 1.7 µM; in experiment [3] (Kd / affinity for UGMmyco) it was 15 µM.

Turning to “UDP-butanolamine-fluorescein conjugate [Compound 5b]”, the results for the Kd in experiment [2] (setting [7]), in experiment [3] (setting [11]) and in experiment [3] (setting [10]) were 1.94 ± 0.15 µM, 2.5 µM and 2.51 ± 0.28 µM, respectively.

Take “UDP-decanolamine-fluorescein conjugate [Compound 5e]”: the Kd in experiment [2] (setting [7]) came out at 0.07 ± 0.002 µM; in experiment [3] (setting [11]), 0.064 µM; in experiment [3] (setting [10]) it was 0.064 ± 0.004 µM.

As to “UDP-hexanolamine-fluorescein conjugate [Compound 5c]”, the Kd in experiment [5] is 0.1 µM; in experiment [6], 0.16 µM; in experiment [2] (setting [7]) it was 0.193 ± 0.011 µM; in experiment [3] (setting [11]), 0.17 µM; in experiment [3] (setting [10]) it was 0.166 ± 0.014 µM.

Regarding “UDP-octanolamine-fluorescein conjugate [Compound 5d]”, the results for the Kd in experiment [2] (setting [7]), in experiment [3] (setting [11]) and in experiment [3] (setting [10]) were 0.045 ± 0.002 µM, 0.054 µM and 0.054 ± 0.006 µM, respectively.

“Uridine 5′-diphosphooctanolamine, ammonium salt [Compound 4d]”: the Kd in experiment [2] (setting [7]) was 37.7 ± 1.5 µM; in experiment [3] (setting [10]), 32 ± 3.4 µM.

Values taken from patent US8273778B2, “Inhibitors of UDP-galactopyranose mutase thwart mycobacterial growth” (Wisconsin Alumni Research Foundation, priority 2008, dated 2012).
